Reference: ChEMBL document CHEMBL1201862, “PubChem BioAssay data set” (2004)
Calls of active or inactive are those of the source.

How the values were obtained:
P388/ADR = assay: cells; type: functional; conditions: Mus musculus
SN12K1 = assay: cells; type: functional; conditions: Homo sapiens
P388 = assay: cells; type: functional; conditions: Mus musculus
[1] = target: G-protein coupled receptor 55 (Homo sapiens, UniProt Q9Y2T6); assay: GPR55 antagonists blocking LPI-driven arrestin recruitment, primary screen, imaging, U2OS, beta-arrestin-GFP, LPI agonist (AID 2013); type: functional;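 note: antagonist potency measured as reduced agonist-driven arrestin aggregation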
[2] = target: T1, Heat shock factor protein 1 (Mus musculus, UniProt P38532); assay: HSF1 potentiators in luciferase reporter cells, confirmation, cell-based, NIH3T3, luminescence, dose retest (AID 435004); type: functional;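 note: stress induced by proteasome inhibitor MG132 added 30 min after compound; luciferase reporter driven by HSF1 response element in NIH3T3 cells; actives raise luminescence as potentiators of the MG132 stress response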
T1 sequence (P38532 whole entry): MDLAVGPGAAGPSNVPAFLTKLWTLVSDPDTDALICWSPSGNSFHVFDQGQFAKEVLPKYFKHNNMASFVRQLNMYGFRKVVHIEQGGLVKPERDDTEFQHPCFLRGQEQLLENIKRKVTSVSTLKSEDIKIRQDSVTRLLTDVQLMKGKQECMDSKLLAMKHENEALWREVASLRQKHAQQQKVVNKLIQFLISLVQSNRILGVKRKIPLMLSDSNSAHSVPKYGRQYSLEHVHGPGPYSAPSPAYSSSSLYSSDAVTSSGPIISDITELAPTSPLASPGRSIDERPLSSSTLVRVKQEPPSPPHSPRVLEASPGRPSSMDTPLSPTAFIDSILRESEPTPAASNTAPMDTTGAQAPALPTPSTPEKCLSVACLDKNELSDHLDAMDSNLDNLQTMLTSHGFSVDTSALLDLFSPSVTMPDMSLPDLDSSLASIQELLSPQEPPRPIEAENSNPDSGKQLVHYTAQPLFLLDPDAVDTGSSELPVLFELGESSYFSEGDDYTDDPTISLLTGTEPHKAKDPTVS

[3] = A Cell Based Secondary Assay To Explore Cytotoxicity of Compounds that Sensitize Mycobacterium Tuberculosis to Beta-Lactam Antibiotics.; type: functional
Large T antigen = Large T antigen (Simian virus 40, UniProt P03070); type: functional, Betapolyomavirus macacae;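 note: Confirmatory-stage PubChem screen for compounds that inhibit SV40 T antigen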
[4] = target: T2, Carboxy-terminal domain RNA polymerase II polypeptide A small phosphatase 1 (Homo sapiens, UniProt Q9GZU7); assay: inhibitors of CTDSP1, concentration-response testing, biochemical assay, absorbance-based, actives from ultra-high-throughput screening (AID 540297); type: functional
T2 sequence (Q9GZU7 whole entry): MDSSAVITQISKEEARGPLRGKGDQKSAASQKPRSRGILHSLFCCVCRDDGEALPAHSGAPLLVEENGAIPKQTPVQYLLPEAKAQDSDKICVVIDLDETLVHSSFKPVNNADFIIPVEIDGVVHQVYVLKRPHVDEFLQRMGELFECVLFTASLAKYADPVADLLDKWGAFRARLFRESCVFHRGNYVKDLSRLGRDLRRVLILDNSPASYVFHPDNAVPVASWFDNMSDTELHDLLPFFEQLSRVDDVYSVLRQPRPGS

[5] = target: Glucose-6-phosphate 1-dehydrogenase (Homo sapiens, UniProt P11413); assay: human G6PD enzyme inhibitors, dose response, selectivity assay for P. falciparum G6PD inhibitor project, biochemical, fluorescence (AID 504792); type: functional
[6] = target: Glyceraldehyde-3-phosphate dehydrogenase (Homo sapiens, UniProt P04406)
Protein Wnt-3a = Protein Wnt-3a (Mus musculus, UniProt P27467); assay: Wnt3a-driven reporter signaling inhibition, dose response, selectivity assay for Gli-SUFU antagonist project, Wnt-LIGHT cells, luminescence (AID 651570); type: functional; conditions: read-out: IC50_Mean;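 note: Wnt-LIGHT reporter cells stimulated with conditioned medium from Wnt3a-producing cells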
[7] = cytotoxicity in HEK-293T cells, dose response, cytotoxicity control for TCR NF-kB inhibitor project, luminescence, T-cell screen hits (AID 489026); type: functional, cell-based;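 note: cells exposed to compound about 14 hours before the viability readout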
HEK293 = assay: inhibitors of LMP1-driven NF-kB reporter, dose response, cell-based, HEK293, luciferase, cherry-pick (AID 588343); type: functional; conditions: Homo sapiens
INS1 = assay: beta cell apoptosis inhibitors, cytokine rescue, dose response, luminescence, retest (AID 449756); type: functional, cell-based; conditions: Rattus norvegicus;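 note: cell death triggered by IL-1 beta plus TNF-alpha plus IFN-gamma mixture; protective hits raise ATP signal compared with cytokine alone wells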

Chain of G-protein coupled receptor 55 (Q9Y2T6 whole entry): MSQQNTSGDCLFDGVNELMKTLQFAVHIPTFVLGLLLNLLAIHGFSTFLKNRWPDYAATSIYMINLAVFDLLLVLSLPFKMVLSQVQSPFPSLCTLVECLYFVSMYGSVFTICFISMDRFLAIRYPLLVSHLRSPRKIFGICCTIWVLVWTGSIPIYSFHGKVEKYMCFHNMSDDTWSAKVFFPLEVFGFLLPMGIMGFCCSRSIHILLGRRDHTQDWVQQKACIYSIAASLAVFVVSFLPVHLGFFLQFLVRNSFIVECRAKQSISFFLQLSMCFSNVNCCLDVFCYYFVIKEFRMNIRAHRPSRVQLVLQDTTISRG
Chain of Glucose-6-phosphate 1-dehydrogenase (P11413 whole entry): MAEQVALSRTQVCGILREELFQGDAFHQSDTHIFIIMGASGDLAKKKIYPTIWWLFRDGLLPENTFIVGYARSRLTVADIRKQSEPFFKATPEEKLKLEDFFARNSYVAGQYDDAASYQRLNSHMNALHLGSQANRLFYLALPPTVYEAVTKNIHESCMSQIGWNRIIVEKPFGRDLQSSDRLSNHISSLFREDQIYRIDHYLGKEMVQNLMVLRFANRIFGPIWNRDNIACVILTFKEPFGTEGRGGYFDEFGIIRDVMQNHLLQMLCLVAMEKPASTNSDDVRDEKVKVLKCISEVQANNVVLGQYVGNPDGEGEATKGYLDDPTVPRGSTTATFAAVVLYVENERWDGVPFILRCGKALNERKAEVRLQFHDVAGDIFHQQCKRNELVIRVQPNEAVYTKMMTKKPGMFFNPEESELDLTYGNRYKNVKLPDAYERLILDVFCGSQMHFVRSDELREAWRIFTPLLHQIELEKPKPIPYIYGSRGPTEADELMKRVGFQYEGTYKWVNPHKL
Chain of Glyceraldehyde-3-phosphate dehydrogenase (P04406 whole entry): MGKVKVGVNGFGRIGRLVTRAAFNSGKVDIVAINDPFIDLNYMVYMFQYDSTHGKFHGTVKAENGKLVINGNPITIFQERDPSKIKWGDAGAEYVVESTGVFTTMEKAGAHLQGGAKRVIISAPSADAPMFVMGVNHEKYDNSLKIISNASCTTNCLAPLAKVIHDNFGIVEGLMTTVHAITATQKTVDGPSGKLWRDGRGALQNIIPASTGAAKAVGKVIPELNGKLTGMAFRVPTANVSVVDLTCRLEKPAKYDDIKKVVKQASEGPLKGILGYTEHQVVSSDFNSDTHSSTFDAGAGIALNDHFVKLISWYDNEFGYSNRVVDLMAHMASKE
Chain of Protein Wnt-3a (P27467 whole entry): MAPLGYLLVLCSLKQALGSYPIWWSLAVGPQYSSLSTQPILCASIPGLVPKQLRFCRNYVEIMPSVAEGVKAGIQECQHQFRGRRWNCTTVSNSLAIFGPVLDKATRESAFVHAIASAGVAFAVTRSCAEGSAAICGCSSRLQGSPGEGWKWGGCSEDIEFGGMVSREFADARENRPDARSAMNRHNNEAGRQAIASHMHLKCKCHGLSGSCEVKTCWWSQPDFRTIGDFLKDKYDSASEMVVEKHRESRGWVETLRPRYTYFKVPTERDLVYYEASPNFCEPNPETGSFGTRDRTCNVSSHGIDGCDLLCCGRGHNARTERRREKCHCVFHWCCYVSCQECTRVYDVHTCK
Chain of Large T antigen (P03070 whole entry, the tested form may be a part): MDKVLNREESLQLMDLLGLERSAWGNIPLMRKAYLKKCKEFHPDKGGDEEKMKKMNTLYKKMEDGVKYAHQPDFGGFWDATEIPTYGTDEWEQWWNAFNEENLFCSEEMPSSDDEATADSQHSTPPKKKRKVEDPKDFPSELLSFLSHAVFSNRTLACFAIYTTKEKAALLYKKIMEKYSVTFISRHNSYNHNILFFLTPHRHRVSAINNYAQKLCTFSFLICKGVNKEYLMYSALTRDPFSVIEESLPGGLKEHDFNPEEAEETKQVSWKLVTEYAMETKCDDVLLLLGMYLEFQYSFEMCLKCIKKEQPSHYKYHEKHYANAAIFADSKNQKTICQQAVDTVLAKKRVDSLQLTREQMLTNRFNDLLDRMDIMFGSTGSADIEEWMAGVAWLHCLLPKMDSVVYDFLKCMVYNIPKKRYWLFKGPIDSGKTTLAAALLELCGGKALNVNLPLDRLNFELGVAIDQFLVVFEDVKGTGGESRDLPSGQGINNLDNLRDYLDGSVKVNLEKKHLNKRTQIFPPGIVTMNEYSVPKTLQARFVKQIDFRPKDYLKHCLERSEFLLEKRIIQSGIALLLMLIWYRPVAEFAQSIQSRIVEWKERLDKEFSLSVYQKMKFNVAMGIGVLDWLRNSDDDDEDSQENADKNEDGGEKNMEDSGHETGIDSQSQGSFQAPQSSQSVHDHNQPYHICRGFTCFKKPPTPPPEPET

CC1C(=O)CC(c2cccs2)N(N=O)C1c1cccs1 (configuration not stated)
GI50 (P388/ADR): 17.3 µM (inactive)
GI50 (SN12K1): 57.8 µM (inactive)
GI50 (P388): 20.4 µM (inactive)

O=c1oc2c(ccc3occc32)c(N2CCCCC2)c1-c1ccccc1
GI50 (P388/ADR): 48.6 µM (inactive)
GI50 (SN12K1): > 100 µM (inactive)
GI50 (P388): 34.7 µM (inactive)

COc1ccc(C2c3ccc(O)cc3Oc3ncn(Cc4ccco4)c(=N)c32)cc1 (configuration not stated)
IC50 [1]: 1.41 µM (active)
EC50 [2]: > 260 µM (inactive)

COc1ccc(Cl)cc1NC(=O)NNC(=O)c1ccccn1
CC50 [3]: 28.8 µM (active)

C[N+]1(CCCCSc2ccc(O)cc2)CCCCC1
IC50 (Large T antigen): 12.1 µM (active)
IC50 [4]: 6.89 µM (active)

O=C(N[C@@H](c1ccccc1)[C@@H](O)C(=O)OCc1ccc2c(c1)OCO2)c1ccccc1
GI50 (P388/ADR): 72.6 µM (inactive)
GI50 (SN12K1): > 100 µM (inactive)
GI50 (P388): 64.7 µM (inactive)

C/C(Cn1nnc([N+](=O)[O-])n1)=N\NC(=O)c1ccccc1O
IC50 [5]: > 80 µM (inactive)

O=C1C(Cl)=C(N2CCN(C/C=C/c3ccccc3)CC2)C(=O)N1c1ccnc(Cl)c1
IC50 [6]: > 50 µM (inconclusive)

Cc1nc2ccccc2n1CC(=O)NC(C)C1CC2CCC1C2 (configuration not stated)
IC50 (Protein Wnt-3a): 4.3 µM (active)

N#C/C(=C\c1c[nH]nc1-c1ccccc1Br)C(=O)O
IC50 [1]: 3.58 µM (active)

NS(=O)(=O)c1ccc(Sc2nc3ccccc3s2)c([N+](=O)[O-])c1
CC50 [3]: 13 µM (active)
IC50 [7]: > 80 µM (inactive)

O=C(Nc1ccc(Cl)cc1)Nc1nnc(CSCc2ccc(Cl)cc2)s1
AC50 (HEK293): 3.92 µM (active)
AC50 (INS1): 3.99 µM (active)
